Measured values taken from PubChem BioAssay AID351 (ChemBlock, 2006).
Square brackets hold non-standard residues; d marks the D form. Peptide text beside a SMILES is read from it. * marks the point of attachment. ξ: configuration not given here. X1 = COC1=CC(=O)N(C(=O)C(O*)C(C)C)C1Cc1ccccc1; ξNMe2Val = CC(C)C(C(=O)*)N(C)C; NMeV = CN[CH](C(=O)O)C(C)C

What follows are compounds tested on sea urchin embryo, cleavage alteration, microscopy (assay: sea urchin embryo cleavage alteration, tubulin destabilizer project, whole organism, microscopy (AID 351)).

`c1ccc(-c2nnc(Nc3ccc4c(c3)OCO4)o2)c(NCc2ccncc2)c1` was tested. Which threshold concentration did it give?
The threshold concentration was 0.5 nM.

With `COc1ccc(NC(=O)C(=O)c2cn(Cc3ccc(Cl)cc3)c3ccccc23)cc1` as the compound, how does the threshold concentration read?
Its threshold concentration is 50 nM.

How did the threshold concentration turn out when `c1cncc(CNc2ccccc2-c2nnc(Nc3ccc4c(c3)OCCO4)o2)c1` was run?
Its threshold concentration is 1 nM.

For `COc1ccc(NC(=O)C(=O)c2c[nH]c3ccccc23)cc1`, which threshold concentration is on record?
The threshold concentration was 1 nM.

Which threshold concentration does the source give for `O=C(Nc1ccc2c(c1)OCCO2)C(=O)c1cn(Cc2ccc(Cl)cc2)c2ccccc12` here?
The threshold concentration was 100 nM.

With `COc1ccc(-c2nc3sc4c(c3c(=O)[nH]2)CCCC4)c2ccccc12` as the compound, how does the threshold concentration read?
Its threshold concentration is 50 nM.

How did the threshold concentration turn out when `COC(=O)Nc1nc2ccc(C(=O)c3cccs3)cc2[nH]1` was run?
The threshold concentration was 5 nM.

`c1ccc(-c2nnc(Nc3ccc4c(c3)OCCO4)o2)c(NCc2ccncc2)c1` was tested. Which threshold concentration did it give?
Its threshold concentration is 0.5 nM.

For `CCOc1ccc(Nc2nc(-c3c(C)nc4ncccn34)cs2)cc1`, which threshold concentration is on record?
The threshold concentration was 5 nM.

How did the threshold concentration turn out when `Cc1nc2sccn2c1-c1csc(Nc2ccccc2Cl)n1` was run?
The threshold concentration was 200 nM.

`CCOc1ccc(Nc2nc(-c3c(C)nc4sccn34)cs2)cc1` was tested. Which threshold concentration did it give?
The threshold concentration was 50 nM.

Which threshold concentration does the source give for `Nc1csnc1-c1nnc(Nc2ccc(Cl)cc2)o1` here?
Its threshold concentration is 200 nM.

With `COc1cc2c(c(OC)c1OC)-c1ccc(OC)c(=O)cc1C(NC(C)=O)CC2` (stereo not drawn) as the compound, how does the threshold concentration read?
The threshold concentration was 50000 nM.

`COC(=O)c1[nH]c2ccccc2c1NCc1ccncc1` was tested. Which threshold concentration did it give?
The threshold concentration was 500 nM.

`CCOc1ccc(Nc2nc(-c3c(C)nc4cc(C)ccn34)cs2)cc1` was tested. Which threshold concentration did it give?
Its threshold concentration is 200 nM.

Which threshold concentration does the source give for `COc1ccc(-c2nnc(-c3ccc(OC)c(OC)c3)o2)cc1OC` here?
Its threshold concentration is 500 nM.

How did the threshold concentration turn out when `Cc1ccc(Nc2nc(-c3c(C)nc4sccn34)cs2)cc1` was run?
Its threshold concentration is 5 nM.

Which threshold concentration does the source give for `COC1=CC(=O)N(C(=O)C(OC(=O)C2CCCN2C(=O)C2CCCN2C(=O)C(C(C)C)N(C)C(=O)C(NC(=O)C(C(C)C)N(C)C)C(C)C)C(C)C)C1Cc1ccccc1` (stereo not drawn) (ξNMe2Val-V[NMeV]PP-X1; configuration not given here) here?
The threshold concentration was 5 nM.
